Experiments:
Assay in all cases: relative viability (nuclei count vs DMSO), 5 days (fraction); higher = more cells survive
OSI-027 + Tozasertib = compound: COc1cccc2cc(-c3nc([C@H]4CC[C@H](C(=O)O)CC4)n4ncnc(N)c34)[nH]c12 [OSI-027] + Cc1cc(Nc2cc(N3CCN(C)CC3)nc(Sc3ccc(NC(=O)C4CC4)cc3)n2)n[nH]1 [Tozasertib] (partner 0.1 µM)
Procedure, shortened: (§1)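 Values are medians from duplicate plates. Each reflects relative viability, defined as the nuclei count of treated wells over that of vehicle wells. Lung cancer cell lines in 1536-well plates were pin-tool dosed one day after seeding with one drug alone or with a fixed anchor-drug dose plus five library-drug doses (not always all listed) in √10 steps, then fixed, stained and imaged at 4× after 5 days.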

Alpelisib + Lapatinib = compound: Cc1nc(NC(=O)N2CCC[C@H]2C(N)=O)sc1-c1ccnc(C(C)(C)C(F)(F)F)c1 [Alpelisib] + CS(=O)(=O)CCNCc1ccc(-c2ccc3ncnc(Nc4ccc(OCc5cccc(F)c5)c(Cl)c4)c3c2)o1 [Lapatinib] (partner 2 µM)
Procedure, shortened: as §1

Vemurafenib + Luminespib = compound: CCCS(=O)(=O)Nc1ccc(F)c(C(=O)c2c[nH]c3ncc(-c4ccc(Cl)cc4)cc23)c1F [Vemurafenib] + CCNC(=O)c1noc(-c2cc(C(C)C)c(O)cc2O)c1-c1ccc(CN2CCOCC2)cc1 [Luminespib] (partner 0.01 µM)
Procedure, shortened: as §1

Vemurafenib + Olaparib = compound: CCCS(=O)(=O)Nc1ccc(F)c(C(=O)c2c[nH]c3ncc(-c4ccc(Cl)cc4)cc23)c1F [Vemurafenib] + O=C(c1cc(Cc2n[nH]c(=O)c3ccccc23)ccc1F)N1CCN(C(=O)C2CC2)CC1 [Olaparib] (partner 8 µM)
Procedure, shortened: as §1

Row | Cell Line | relative viability (OSI-027 + Tozasertib; first compound 0.01 µM) | relative viability (OSI-027 + Tozasertib; first compound 0.03162 µM) | relative viability (OSI-027 + Tozasertib; first compound 0.1 µM) | relative viability (OSI-027 + Tozasertib; first compound 0.3162 µM) | relative viability (OSI-027 + Tozasertib; first compound 1 µM) | relative viability (Alpelisib + Lapatinib; first compound 0.04 µM) | relative viability (Alpelisib + Lapatinib; first compound 0.1265 µM) | relative viability (Alpelisib + Lapatinib; first compound 0.4 µM) | relative viability (Alpelisib + Lapatinib; first compound 1.265 µM) | relative viability (Alpelisib + Lapatinib; first compound 4 µM) | relative viability (Vemurafenib + Luminespib; first compound 0.03162 µM) | relative viability (Vemurafenib + Luminespib; first compound 0.1 µM) | relative viability (Vemurafenib + Luminespib; first compound 0.3162 µM) | relative viability (Vemurafenib + Luminespib; first compound 1 µM) | relative viability (Vemurafenib + Olaparib; first compound 0.03162 µM) | relative viability (Vemurafenib + Olaparib; first compound 0.1 µM) | relative viability (Vemurafenib + Olaparib; first compound 0.3162 µM) | relative viability (Vemurafenib + Olaparib; first compound 1 µM)
1 | 201T | 1 | 0.96 | 0.946 | 0.914 | 0.736 | 1.02 | 0.988 | 1.02 | 1.01 | 0.945 | 1.01 | 1.05 | 1.14 | 1.03 | 0.828 | 0.806 | 0.86 | 0.828
2 | A549 |  |  |  |  |  | 0.915 | 0.857 | 0.866 | 0.637 | 0.53 |  |  |  |  | 0.315 | 0.323 | 0.186 | 0.249
3 | A-427 | 0.231 | 0.201 | 0.159 | 0.219 | 0.192 | 1.03 | 0.914 | 0.967 | 0.926 | 1.04 | 0.846 | 0.919 | 0.627 | 0.87 | 0.71 | 0.663 |  | 0.701
4 | ABC-1 | 0.197 | 0.179 | 0.203 | 0.167 | 0.206 | 0.943 | 0.988 | 1.17 | 0.706 | 0.717 |  |  |  | 0.779 | 1.12 | 0.8 | 0.6 | 0.93
5 | BEN | 0.566 | 0.625 | 0.469 | 0.529 | 0.383 | 0.715 | 0.618 | 0.88 | 0.688 | 0.708 | 0.382 | 0.302 |  | 0.274 | 0.971 | 0.992 | 0.653 | 1.06
6 | CAL-12T | 0.377 | 0.287 | 0.317 | 0.294 | 0.212 | 0.678 |  | 0.658 |  | 0.496 | 0.375 | 0.345 | 0.228 | 0.847 | 0.686 | 0.663 | 0.83 | 0.829
7 | COR-L23 | 0.18 | 0.185 | 0.237 | 0.287 | 0.19 | 1.03 | 0.896 | 1.14 | 0.781 | 0.606 | 0.571 | 0.744 | 0.632 | 0.688 | 0.332 | 0.353 | 0.298 | 0.341
8 | COR-L 105 | 0.335 | 0.336 | 0.374 | 0.371 | 0.411 | 0.338 | 0.391 | 0.364 | 0.287 | 0.337 | 0.738 |  |  | 0.935 | 0.617 |  | 0.742 | 0.734
9 | Calu-6 |  |  |  |  |  | 1.1 | 1.09 | 1.12 | 0.996 | 0.952 |  |  |  |  |  | 0.593 | 0.549 | 0.471

— the supplement of paper PMC10307832
